Target: T1, human OX2R (Homo sapiens, UniProt O43614)
T1 construct: expressed in transfected cells; host or cells: CHO (Chinese hamster ovary) cells grown under G418 selection
T1 sequence (O43614 1-444): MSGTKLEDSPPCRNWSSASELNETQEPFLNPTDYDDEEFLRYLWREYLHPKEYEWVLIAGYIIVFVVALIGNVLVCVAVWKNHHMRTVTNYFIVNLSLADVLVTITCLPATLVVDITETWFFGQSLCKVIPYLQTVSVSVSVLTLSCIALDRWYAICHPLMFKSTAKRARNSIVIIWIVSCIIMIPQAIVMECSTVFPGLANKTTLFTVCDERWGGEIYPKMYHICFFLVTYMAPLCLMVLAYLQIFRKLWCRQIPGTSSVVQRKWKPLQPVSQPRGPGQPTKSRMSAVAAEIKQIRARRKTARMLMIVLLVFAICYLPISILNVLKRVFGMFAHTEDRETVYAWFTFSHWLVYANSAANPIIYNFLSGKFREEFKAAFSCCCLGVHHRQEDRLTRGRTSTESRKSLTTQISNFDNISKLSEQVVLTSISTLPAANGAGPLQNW
Test: IPOne (IP-1 accumulation) assay in CHO cells expressing human OX2R
Type: cell-based
Settings: for EC50: CHO cells expressing human OX2R, IP-One assay, 2 h incubation, four parameter logistic fit, read-out: OX2R Potency, EC50; for % of maximum agonist effect (relative to Orexin A): percent effect vs mean max effect of a reference compound at 1 uM (100% activity vs Orexin A), human OX2R
Description: The utility of the compounds in accordance with the present invention as orexin receptor OX1R and/or OX2R agonists may be readily determined without undue experimentation by methodology well known in the art. Both the OX1R and/or OX2R G-coupled protein receptors (GPCRs) couple through the Gαq signaling pathway, which ultimately promotes calcium mobilization via inositol triphosphate (IP3) production. […] The utility of the compounds in accordance with the present invention as orexin receptor OX1R and/or OX2R agonists may be determined utilizing this assay.
In a typical experiment, the OX1 and OX2 receptor agonist activity is determined in accordance with the following general experimental method. Chinese hamster ovary (CHO) cells expressing human OX1R and/or the human OX2R were grown in Iscove's modified DMEM containing glutaMAX™, 1% G418, 100 U/mL penicillin, 100 μg/mL streptomycin and 10% heat-inactivated qualified fetal bovine serum (FBS). […] During this incubation, IP-one detection reagents were prepared (38:1:1 lysis buffer:D2:AB-cryptate reagents).
For each compound, data were fit to a four parameter logistic fit (ActivityBase software) and the EC50 was reported as the inflection point of the resulting curve. […] The intrinsic orexin receptor agonist activity of a compound which may be used in the present invention may be determined by these assays.

SMILES | EC50 [nM] | % of maximum agonist effect (relative to Orexin A) [%]
CCOc1cc(-c2cccc([C@@H](C)N(CC)C(=O)N[C@H](CC)CCC(F)(F)F)c2)cn2ccnc12 [Example 8-2, 1-((R)-1-(3-(8-ethoxyimidazo[1,2-a]pyridin-6-yl)phenyl)ethyl)-1-ethyl-3-((R)-6,6,6-trifluorohexan-3-yl)urea] | 6.5 | 97.7
CCN(C(=O)N[C@@H](CCC(F)(F)F)C(F)(F)F)[C@@H](c1cc(-c2cn3ccnc3c(OC)n2)c(C)cn1)C(F)(F)F [Example 10-21, 1-ethyl-3-((S)-1,1,1,5,5,5-hexafluoropentan-2-yl)-1-((S)-2,2,2-trifluoro-1-(4-(8-methoxyimidazo[1,2-a]pyrazin-6-yl)-5-methylpyridin-2-yl)ethyl)urea] | 1.6 | 100.9
CCN(C(=O)N[C@H](C)c1cccc(F)c1)[C@H](C)c1cccc(-c2cn3ccnc3c(OC)n2)c1 [Example 1-2, 1-ethyl-3-((R)-1-(3-fluorophenyl)ethyl)-1-((R)-1-(3-(8-methoxyimidazo[1,2-a]pyrazin-6-yl)phenyl)ethyl)urea] | 5.2 | 98.3
CCN(C(=O)N[C@@H](CCC(F)(F)F)C(F)(F)F)[C@H](C)c1cccc(-c2cc(OC)c3ncc(Cl)n3c2Cl)c1 [Example 8-14, 1-((R)-1-(3-(3,5-dichloro-8-methoxyimidazo[1,2-a]pyridin-6-yl)phenyl)ethyl)-1-ethyl-3-((S)-1,1,1,5,5,5-hexafluoropentan-2-yl)urea] | 109 | 100.1
CCN(C(=O)NC(CC(C)C(F)(F)F)C(F)(F)F)[C@H](C)c1cccc(-c2cn3ccnc3c(OC)n2)c1 (stereo partly drawn) [Example 2-2, 1-ethyl-3-(1,1,1,5,5,5-hexafluoro-4-methylpentan-2-yl)-1-((R)-1-(3-(8-methoxyimidazo[1,2-a]pyrazin-6-yl)phenyl)ethyl)urea] | 3.7 | 99.1
CCN(C(=O)NC(C1CC1)C(F)(F)F)C(c1cc(-c2cn3ccnc3c(OC)n2)c(OC)cn1)C(F)(F)F (stereo not drawn) [Example 2-6, 3-(1-cyclopropyl-2,2,2-trifluoroethyl)-1-ethyl-1-(2,2,2-trifluoro-1-(5-methoxy-4-(8-methoxyimidazo[1,2-a]pyrazin-6-yl)pyridin-2-yl)ethyl)urea] | 12.1 | 101.5
CCN(C(=O)N[C@]1(C)C[C@H]1C(F)(F)F)[C@@H](c1cc(-c2cn3ccnc3c(OC)n2)c(OC)cn1)C(F)(F)F [Example 2-31, 1-ethyl-3-((1R,2R)-1-methyl-2-(trifluoromethyl)cyclopropyl)-1-((S)-2,2,2-trifluoro-1-(5-methoxy-4-(8-methoxyimidazo[1,2-a]pyrazin-6-yl)pyridin-2-yl)ethyl)urea] | 35.1 | 99.0
CC[C@H](CCC(F)(F)F)NC(=O)N(CC)[C@H](C)c1cccc(-c2cc(COC)c3nccn3c2)c1 [Example 7-4, 1-ethyl-1-((R)-1-(3-(8-(methoxymethyl)imidazo[1,2-a]pyridin-6-yl)phenyl)ethyl)-3-((R)-6,6,6-trifluorohexan-3-yl)urea] | 595 | 97.8
CC[C@H](CCC(F)(F)F)NC(=O)N(CC)[C@H](C)c1cccc(-c2cc(Cl)n3nccc3c2)c1 [Example 7-5, 1-((R)-1-(3-(7-chloropyrazolo[1,5-a]pyridin-5-yl)phenyl)ethyl)-1-ethyl-3-((R)-6,6,6-trifluorohexan-3-yl)urea] | 851 | 93.7
CCN(C(=O)N[C@@H](CCC(F)(F)F)C(F)(F)F)[C@H](C)c1cnc(C)c(-c2cn3ccnc3c(OC)n2)c1 [Example 10-18, 1-ethyl-3-((S)-1,1,1,5,5,5-hexafluoropentan-2-yl)-1-((R)-1-(5-(8-methoxyimidazo[1,2-a]pyrazin-6-yl)-6-methylpyridin-3-yl)ethyl)urea] | 11.9 | 99.8
CCN(C(=O)NC(CN1CCOC1=O)C(F)(F)F)[C@@H](c1cc(-c2cn3ccnc3c(OC)n2)c(OC)cn1)C(F)(F)F (stereo partly drawn) [Example 2-43, 1-ethyl-1-((S)-2,2,2-trifluoro-1-(5-methoxy-4-(8-methoxyimidazo[1,2-a]pyrazin-6-yl)pyridin-2-yl)ethyl)-3-(1,1,1-trifluoro-3-(2-oxooxazolidin-3-yl)propan-2-yl)urea] | 1.1 | 99.8
CCN(C(=O)N[C@@H](CCC(F)F)C(F)F)[C@@H](c1cc(-c2cn3cc(C)nc3c(OC)n2)c(OC)cn1)C(F)(F)F [Example 4-2, 1-ethyl-3-((S)-1,1,5,5-tetrafluoropentan-2-yl)-1-((S)-2,2,2-trifluoro-1-(5-methoxy-4-(8-methoxy-2-methylimidazo[1,2-a]pyrazin-6-yl)pyridin-2-yl)ethyl)urea] | 5.9 | 99.9
CCN(C(=O)N[C@@H](CCC(F)(F)F)C(F)(F)F)[C@H](C)c1cc(-c2cn3ccnc3c(OC)n2)ccn1 [Example 14-1, 1-ethyl-3-((S)-1,1,1,5,5,5-hexafluoropentan-2-yl)-1-((R)-1-(4-(8-methoxyimidazo[1,2-a]pyrazin-6-yl)pyridin-2-yl)ethyl)urea] | 1.5 | 100.3
CC[C@H](CCC(F)(F)F)NC(=O)N(CC)[C@H](C)c1ccc(OC)c(-c2cc(N)c3nccn3c2)c1 [Example 8-4, 1-((R)-1-(3-(8-aminoimidazo[1,2-a]pyridin-6-yl)-4-methoxyphenyl)ethyl)-1-ethyl-3-((R)-6,6,6-trifluorohexan-3-yl)urea] | 25.9 | 98.7
CC[C@H](CCC(F)(F)F)NC(=O)N(CC)[C@H](C)c1cc(-c2ccc3nccn3c2)c(OC)cc1F [Example 11-2, 1-ethyl-1-((R)-1-(2-fluoro-5-(imidazo[1,2-a]pyridin-6-yl)-4-methoxyphenyl)ethyl)-3-((R)-6,6,6-trifluorohexan-3-yl)urea] | 80.5 | 98.5
CCN(C(=O)NC(CCC(F)(F)F)C1CCO1)[C@@H](c1cc(-c2cn3ccnc3c(OC)n2)c(OC)cn1)C(F)(F)F (stereo partly drawn) [Example 2-45, 1-ethyl-1-((S)-2,2,2-trifluoro-1-(5-methoxy-4-(8-methoxyimidazo[1,2-a]pyrazin-6-yl)pyridin-2-yl)ethyl)-3-(4,4,4-trifluoro-1-(oxetan-2-yl)butyl)urea] | 1.9 | 99.8
CCN(C(=O)N[C@@H](CCC(F)(F)F)C(F)(F)F)[C@H](C)c1cccc(-c2cc(OC)c3ncnn3c2)c1 [Example 8-11, 1-ethyl-3-((S)-1,1,1,5,5,5-hexafluoropentan-2-yl)-1-((R)-1-(3-(8-methoxy-[1,2,4]triazolo[1,5-a]pyridin-6-yl)phenyl)ethyl)urea] | 2 | 95.4
CCN(C(=O)N[C@@H](CCC(F)(F)F)C(F)(F)F)C(C)c1cc(-c2cc(F)c3nccn3c2)c(OC)cn1 (stereo partly drawn) [Example 15-2, 1-ethyl-1-(1-(4-(8-fluoroimidazo[1,2-a]pyridin-6-yl)-5-methoxypyridin-2-yl)ethyl)-3-((S)-1,1,1,5,5,5-hexafluoropentan-2-yl)urea] | 1 | 99.1
